According to US10092574B2, “Inhibitors of polynucleotide repeat-associated RNA foci and uses thereof” (VALORISATION-RECHERCHE, LIMITED PARTNERSHIP, priority 2013, dated 2018):

Assays:
[1] = test system: CUGBP1; assay: Western blot of CUGBP1 protein levels in myoblasts; assay type: cell-based, human; conditions: 20 μM, 7 days (FIG. 7); for reduction of CUGBP1 levels: DM1 myoblasts
Description: Human myoblasts were obtained from the Myosix institute associated with the Association Frangaise contre les Myopathies (AFM). Five primary myoblast lines were obtained as controls, and one line from a DM1 patient with a 3.8 Kb CTG triplet amplification corresponding to approximately 1250 CTG repeats. The human myoblasts are cultivated in HAM-F10 media (SIGMA N6635) with 15% FBS, 1% chick embryo extract, and 390 ng/ml of dexamethasone. One day before adding compounds, 2×10^5 cells were plated in 100 mm plates (for CUGBP1 western blot or RT-PCR alternative splicing assay) or 2×10^4 cells/well are seeded in 12-well plates containing 12 mm round glass coverslips (for FISH to detect RNA foci). One day after plating, media is replaced with fresh media containing the compounds at the desired concentration in this manner: the media is put in a screw-cap tube and heated at 37° C. The 20 mM compound stock in 100% DMSO is pipetted directly into the media and the tube is mixed well by inversion and gentle vortexing, and immediately overlayed on the cells. Pure DMSO is used for the control cells. Final concentrations on myoblasts are never higher than 0.5%. This procedure is repeated twice during the seven days of treatment, the media is thus replaced with fresh media containing compound every 2-3 days. Cells are collected or fixed for FISH after one week.
For Western blots, CUGBP1 was detected with the 3B1-3D11 monoclonal antibody (mAb) (SIGMA C5112) and GAPDH was detected with the 6C5 mAb (Millipore MAB374). The enhanced chemiluminescence signal (ECL) was acquired and quantified with the ChemiDoc™ MP imaging system (Bio-Rad). For alternative splicing assays, total RNA was collected with Trizol™ (Invitrogen), and 1 μg was used for reverse transcription with random primers with the RevertAid™ H Minus M-MuL RT (Fermentas) according to manufacturer's instructions. For MBNL2, PCR amplification was performed with primers 5′-[…]-3′ (SEQ ID NO:1) and 5′-[…]-3′ (SEQ ID NO:2). SERCA1 was amplified with primers 5′-[…]-3′ (SEQ ID NO:3) and 5′-[…]-3′ (SEQ ID NO:4). For TNNT2 (cardiac Troponin T), PCR was carried out with primers 5′-[…]-3′ (SEQ ID NO:5) and 5′-[…]-3′ (SEQ ID NO:6). The alternative splicing of the hnRNPA2/B1 transcript was detected with the primers 5′-[…]-3′ (SEQ ID NO:7) and 5′-[…]-3′ (SEQ ID NO:8). PCR was performed with Taq using standard conditions but the number of amplification cycles was optimized to be in the quantitative range for each gene. The products of PCR amplification were resolved on 3.5% agarose gels containing Gelred™ (Biotium) and images were acquired and quantified with the ChemiDoc™ MP imaging system (Bio-Rad). […]

[2] = test system: CUG-repeat RNA foci (mutant DMPK mRNA); assay: FISH detection and quantification of CUG-repeat RNA foci in DM1 patient myoblasts; assay type: cell-based, human; conditions: DM1 myoblasts ~1250 CTG, 7 days, 15 μM compound 15 or 5 μM compound 32, vs DMSO (FIG. 4)
Description: Human myoblasts were obtained from the Myosix institute associated with the Association Frangaise contre les Myopathies (AFM). Five primary myoblast lines were obtained as controls, and one line from a DM1 patient with a 3.8 Kb CTG triplet amplification corresponding to approximately 1250 CTG repeats. The human myoblasts are cultivated in HAM-F10 media (SIGMA N6635) with 15% FBS, 1% chick embryo extract, and 390 ng/ml of dexamethasone. One day before adding compounds, 2×10^5 cells were plated in 100 mm plates (for CUGBP1 western blot or RT-PCR alternative splicing assay) or 2×10^4 cells/well are seeded in 12-well plates containing 12 mm round glass coverslips (for FISH to detect RNA foci). […]
For fluorescent in situ hybridization (FISH), cells grown on glass coverslips were fixed in PBS containing 4% paraformaldehyde, dehydrated for 2 hours in 70% ethanol, and incubated overnight with 10 ng of probe in 2×SSC 40% formamide at 37° C. […] To quantify the CUG repeat RNA aggregates, the 3D images of the foci were first processed by maximum intensity projection with the MetaMorph™ software (Molecular Devices Inc.), resulting in a 2D image containing all the foci in each cell. […] For each treatment condition, 60 to 80 cells were analyzed and all the data points were presented, with the median value indicated. […]

SMILES	reduction of CUGBP1 levels [1]	decrease in RNA foci formation (surface occupied by RNA foci in the nucleus) [2]	change of CUGBP1 levels in WT cells ([1]; WT myoblasts)
CCCc1c(C(=O)N(Cc2ccccc2)Cc2cccs2)cnn1-c1ccccc1 [Compound 32]	30%	more than two-fold decrease	–
CCCN(CCC)S(=O)(=O)c1ccc(NS(=O)(=O)Cc2ccccc2)cc1 [Compound 15]	85%	more than two-fold decrease	does not change
